Consider five compounds from US9999222B2, “Herbicidal combination comprising azines” (BASF SE, priority 2014, dated 2018).

The structures appear in SMILES notation. Values joined by “and” are separate entries in the source; they are usually repeats but may differ in a detail not shown here. Equal entries are not always repeated.

What all share (experiment): Greenhouse test, pre-emergence treatment
Assay [1] has as its system SIDRH. The assay is classed as in vivo, Sida rhombifolia. The settings on record: Sida rhombifolia, pre-emergence, 480 h, 40 g ai/ha, 20 DAT; read-out: observed % activity. A digest of the protocol:
(§1)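 Seeds were sown in loamy sand with about 3.0% humus, and compounds in water were sprayed immediately after sowing, alone or as combinations formulated as 10% emulsion concentrates. Plants grew under hoods until rooted, at 10-25 °C or 20-35 °C by species, for 2 to 4 weeks. Damage was scored 0-100 (100 = no emergence or complete destruction), and Colby expected values were E=X+Y−(X·Y/100).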

The test system of assay [2] is EPHHL. The assay is classed as in vivo, Euphorbia heterophylla. The settings on record: Euphorbia heterophylla, pre-emergence, 480 h. A digest of the protocol:
as §1

Assay [3] has as its system KCHSC. The assay is classed as in vivo, Kochia scoparia. The following applies: pre-emergence, pre-emergence. The gist of the method:
as §1

The test system of assay [4] is GALAP. Format: in vivo, Galium aparine. The following applies: Galium aparine, pre-emergence, 480 h. A digest of the protocol: as §1
Assay [5] concerns GERPU. The assay is classed as in vivo, Geranium pusillum. The following applies: Geranium pusillum, pre-emergence, 480 h. The gist of the method: as §1
The subject of assay [6] is COMBE. Format: in vivo, Commelina benghalensis. The following applies: Commelina benghalensis, pre-emergence, 480 h. The gist of the method: as §1
Assay [7] concerns POLCO. The assay is classed as in vivo, Polygonum convolvulus. The settings on record: pre-emergence; for observed % activity 20 DAT: POLCO. A digest of the protocol:
as §1

The subject of assay [8] is ANTAR. The assay is classed as in vivo. The settings on record: Anthemis arvensis, 480 h, 40 g ai/ha, 20 DAT, read-out: observed % activity. The gist of the method:
as §1

Assay [9] has as its system ABUTH. Format: in vivo, Abutilon theophrasti. A digest of the protocol: as §1
The test system of assay [10] is IPOHE. Format: in vivo, Ipomoea hederacea. The settings on record: Ipomoea hederacea, 480 h, 60 g ai/ha, read-out: observed % activity 20 DAT. A digest of the protocol:
as §1

The subject of assay [11] is CENCY. Format: in vivo. The settings on record: 480 h, read-out: observed % activity 20 DAT.
Assay [12] deals with ALOMY. The assay is classed as in vivo, Alopecurus myosuroides. The following applies: pre-emergence, pre-emergence. A digest of the protocol:
as §1

The subject of assay [13] is ELEIN. The assay is classed as in vivo, Eleusine indica. An excerpt:
(§2) The culture containers used were plastic flowerpots containing loamy sand with approximately 3.0% of humus as the substrate. The seeds of the test plants were sown separately for each species.
(§3) For the pre-emergence treatment, the active ingredients, which had been suspended or emulsified in water, were applied directly after sowing by means of finely distributing nozzles. The containers were irrigated gently to promote germination and growth and subsequently covered with transparent plastic hoods until the plants had rooted. This cover caused uniform germination of the test plants, unless this had been impaired by the active ingredients.
(§4) Depending on the species, the plants were kept at 10-25° C. or 20-35° C., respectively.
(§5) The test period extended over 2 to 4 weeks. During this time, the plants were tended, and their response to the individual treatments was evaluated.
(§6) Evaluation was carried out using a scale from 0 to 100. 100 means no emergence of the plants, or complete destruction of at least the aerial moieties, and 0 means no damage, or normal course of growth. A moderate herbicidal activity is given at values of at least 60, a good herbicidal activity is given at values of at least 70, and a very good herbicidal activity is given at values of at least 85.
(§7) The respective stated components a and b, and if appropriate, c were formulated as a 10% by weight strength emulsion concentrate and, with addition of the amount of solvent system, introduced into the spray liquor used for applying the active compound.
(§8) In the examples, the solvent used was water.
(§9) In the examples below, using the method of S. R. Colby (1967) “Calculating synergistic and antagonistic responses of herbicide combinations”, Weeds 15, p. 22ff., the value E, which is expected if the activity of the individual active compounds is only additive, was calculated. E=X+Y−(X·Y/100) where • X=percent activity using active compound a at an application rate A; • Y=percent activity using active compound b at an application rate B; • E=expected activity (in %) by a+b at application rates A+B.
(§10) If the value found experimentally is higher than the value E calculated according to Colby, a synergistic effect is present.

Assay [14] relates to DIGSA. The assay is classed as in vivo.
Assay [15] relates to AVEFA. The assay is classed as in vivo, Avena fatua. The settings on record: pre-emergence, pre-emergence.
Source text: as §2, §3, §4, §5, §6, §7, §8, §9, §10

The test system of assay [16] is BRADC. The assay is classed as in vivo, Brachiaria decumbens. The settings on record: pre-emergence, pre-emergence.
Source text: as §2, §3, §4, §5, §6, §7, §8, §9, §10

For assay [17], the system named is PHACA. The assay is classed as in vivo, Phalaris canariensis. The settings on record: pre-emergence, pre-emergence.
Source text: as §2, §3, §4, §5, §6, §7, §8, §9, §10

For assay [18], the system named is SETVI. The assay is classed as in vivo, Setaria viridis.
Source text: as §2, §3, §4, §5, §6, §7, §8, §9, §10

Assay [19] has as its system ECHCG. The assay is classed as in vivo, Echinocloa crus-galli.
Source text: as §2, §3, §4, §5, §6, §7, §8, §9, §10

The subject of assay [20] is LOLMU. The assay is classed as in vivo, Lolium multiflorum. The following applies: pre-emergence.
Source text: as §2, §3, §4, §5, §6, §7, §8, §9, §10

Assay [21] deals with SETFA. Format: in vivo, Setaria faberi. The following applies: SETFA, application rate 0.25 kg/ha, scale 0 to 100.
Source text: as §2, §3, §4, §5, §6, §7, §8, §9, §10

In assay [22] the test system is AMARE. The assay is classed as in vivo, Amaranthus retroflexus. The following applies: application rate 0.25 kg/ha, scale 0 to 100.
Source text: as §2, §3, §4, §5
Evaluation was carried out using a scale from 0 to 100. […]
In the examples below, using the method of S. R. Colby (1967) “Calculating synergistic and antagonistic responses of herbicide combinations”, Weeds 15, p. 22ff., the value E, which is expected if the activity of the individual active compounds is only additive, was calculated. […]
as §10

The mark [23] stands for this setting: 40 g ai/ha, 20 DAT, read-out: observed % activity.
The mark [24] stands for this setting: 60 g ai/ha, read-out: observed % activity 20 DAT.
[25] abbreviates: 80 g ai/ha, 20 DAT, read-out: observed % activity.

Turning to `O=C(Nc1ccc(F)cc1F)c1cccnc1Oc1cccc(C(F)(F)F)c1` [diflufenican], the inhibition at 40 g/ha in assay [1] was determined as 0%; in [2] (setting [23]), 20%; in [5] (setting [23]) it was 40%; in [7] (Fallopia convolvulus, 480 h, 40 g ai/ha, 20 DAT, read-out: observed % activity), 20%; in assay [8], 85%; in assay [9] (Abutilon theophrasti, 480 h, 40 g ai/ha, 20 DAT, read-out: observed % activity) it was 25%. For the same compound, the inhibition at 60 g/ha in [2] (setting [24]) is 15%; in assay [3] (Bassia scoparia, 480 h, 60 g ai/ha, read-out: observed % activity 20 DAT), 80%; in [4] (setting [24]), 25%; in [5] (setting [24]) it was 60%; in assay [6] (setting [24]), 35%; in [7] (Fallopia convolvulus, 480 h, 60 g ai/ha, read-out: observed % activity 20 DAT), 60%. The inhibition at 60 g/ha in assay [9] (Abutilon theophrasti, 480 h, 60 g ai/ha, read-out: observed % activity 20 DAT) came to 0%; in assay [10], 15%; in assay [11] (60 g ai/ha) it was 0%. The inhibition at 80 g/ha in assay [4] (setting [25]) came to 40%; in [5] (setting [25]), 50%; in assay [6] (setting [25]), 55%; in assay [9] (Abutilon theophrasti, 480 h, 80 g ai/ha, 20 DAT, read-out: observed % activity) it was 50%. The inhibition at 30 g/ha was 20% in [4] (30 g ai/ha, read-out: observed % activity 20 DAT); 0% in assay [9] (Abutilon theophrasti, 480 h, 30 g ai/ha, read-out: observed % activity 20 DAT); 0% in assay [11] (30 g ai/ha).

For the compound `CC(C)N(C(=O)SCC(Cl)=C(Cl)Cl)C(C)C` [Tri-allate, triallate], the inhibition at 400 g/ha in assay [12] (Alopecurus myosuroides, 480 h, 400 g ai/ha, read-out: observed % activity 20 DAT) was determined as 5%; in [13] (Eleusine indica, 480 h, 400 g ai/ha, read-out: observed % activity 20 DAT), 0%; in assay [14] (Digitaria sanguinalis, 480 h, 400 g ai/ha, read-out: observed % activity 20 DAT) it was 0%; in assay [15] (Avena fatua, 480 h, 400 g ai/ha, read-out: observed % activity 20 DAT), 75%; in [17] (Phalaris canariensis, 480 h, 400 g ai/ha, read-out: observed % activity 20 DAT) it was 0%. Moreover, the inhibition at 200 g/ha in assay [15] (Avena fatua, 480 h, 200 g ai/ha, read-out: observed % activity 20 DAT) amounted to 45%; in assay [16] (Urochloa decumbens, 480 h, 200 g ai/ha, read-out: observed % activity 20 DAT) it was 0%; in assay [17] (Phalaris canariensis, 480 h, 200 g ai/ha, read-out: observed % activity 20 DAT), 0%.

In the case of `C#CCN1C(=O)C(F)(F)Oc2cc(F)c(-n3c(=O)n(C)c(=S)n(C)c3=O)cc21` [PPO, trifludimoxazin], the “observed % activity 20 DAT” value amounted to 60% in [12] (25 g ai/ha); 95% in assay [18] (18 g ai/ha); 90% in assay [18] (36 g ai/ha); 55% in assay [13] (18 g ai/ha); 90% in assay [13] (36 g ai/ha); 85% in [14] (18 g ai/ha). Besides, the “observed % activity 20 DAT” value stood at 90% in [14] (36 g ai/ha); 0% in [15] (25 g ai/ha); 15% in assay [15] (36 g ai/ha); 0% in assay [15] (50 g ai/ha); 25% in assay [3] (KCHSC, use rate 12.5 g ai/ha, 20 DAT); 25% in [3] (use rate 12.5 g ai/ha). Also, the “observed % activity 20 DAT” value in assay [3] (use rate 25 g ai/ha) is on record as 85%; in assay [7] (use rate 12.5 g ai/ha, 20 DAT) it was 0%; in [7] (use rate 25 g ai/ha, 20 DAT), 0%; in assay [19] (18 g ai/ha) it was 0%; in assay [20] (25 g ai/ha), 0%; in [20] (36 g ai/ha), 35%. For the same compound, the “observed % activity 20 DAT” value in assay [20] (50 g ai/ha) was 55%; in assay [16] (25 g ai/ha), 65%; in [16] (36 g ai/ha), 25%; in assay [17] (18 g ai/ha) it was 45%; in assay [17] (25 g ai/ha) it was 35%; in assay [17] (36 g ai/ha, listed as BAS 850 (PPO)), 70% and 65%. In addition, in assay [17] (use rate 12.5 g ai/ha), the “observed % activity 20 DAT” value is given as 85%.

Regarding `CC(c1nc(N)nc(Nc2c(F)c(F)cc(F)c2F)n1)C(C)(C)C` (stereo not shown) [Example 7, N4-(2,3,5,6-tetrafluorophenyl)-6-(1,2,2-trimethylpropyl)-1,3,5-triazine-2,4-diamine], the herbicidal activity result in assay [21] is “very good herbicidal activity (a very good herbicidal activity is given at values of at least 85)”; in [22] it was “very good herbicidal activity (a very good herbicidal activity is given at values of at least 85)”; in assay [19] (ECHCG, application rate 0.25 kg/ha, scale 0 to 100), “very good herbicidal activity (a very good herbicidal activity is given at values of at least 85)”.

On to `CCCC(C)c1nc(N)nc(Nc2c(F)c(F)cc(F)c2F)n1` (stereo not shown) [Example 6, 6-(1-methylbutyl)-N4-(2,3,5,6-tetrafluorophenyl)-1,3,5-triazine-2,4-diamine], for which the herbicidal activity result in assay [21] is on record as “very good herbicidal activity (a very good herbicidal activity is given at values of at least 85)”; in assay [22] it was “very good herbicidal activity (a very good herbicidal activity is given at values of at least 85)”; in assay [9] (ABUTH, application rate 0.25 kg/ha, scale 0 to 100) it was “very good herbicidal activity (a very good herbicidal activity is given at values of at least 85)”.
